# Source: PubChem BioAssay AID1963976 (Molecular Pharmacology Branch, DTP, NCI, 2024)
# Tested on: 435261-313-R-J1-PDC tumor spheroid viability
# Assay: Anticancer human tumor 435261-313-R-J1-PDC patient-derived colon adenocarcinoma cell line growth inhibition [PI3K]
# Conditions: spheroids with HUVEC and MSC; for IC50: curve of first compound; for viability, T/C: stronger effect = lower value
# Procedure, shortened: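 High-throughput combination screen: PI3K inhibitors crossed with targeted small molecules on complex spheroids of tumor cells, HUVEC and MSCs at 37 degrees C, 5% CO2. Top concentration was at or near clinical Cmax (otherwise 10 microM), with half-log decrements.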
# [1] = second compound 0.0316 µM, first compound 0.0316 µM
# [2] = second compound 0.0316 µM, first compound 0.1 µM
# [3] = second compound 0.0316 µM, first compound 0.316 µM
# [4] = second compound 0.0316 µM, first compound 1 µM
# [5] = second compound 0.0316 µM, first compound 3.16 µM
# [6] = second compound 0.0316 µM, first compound 10 µM
# [7] = second compound 0.1 µM, first compound 0.0316 µM
# [8] = second compound 0.1 µM, first compound 0.1 µM
# [9] = second compound 0.1 µM, first compound 0.316 µM
# [10] = second compound 0.1 µM, first compound 1 µM
# [11] = second compound 0.1 µM, first compound 3.16 µM
# [12] = second compound 0.1 µM, first compound 10 µM
# [13] = second compound 0.316 µM, first compound 0.0316 µM
# [14] = second compound 0.316 µM, first compound 0.1 µM
# [15] = second compound 0.316 µM, first compound 0.316 µM
# [16] = second compound 0.316 µM, first compound 1 µM
# [17] = second compound 0.316 µM, first compound 3.16 µM
# [18] = second compound 0.316 µM, first compound 10 µM
# [19] = second compound 1 µM, first compound 0.0316 µM
# [20] = second compound 1 µM, first compound 0.1 µM
# [21] = second compound 1 µM, first compound 0.316 µM
# [22] = second compound 1 µM, first compound 1 µM
# [23] = second compound 1 µM, first compound 3.16 µM
# [24] = second compound 1 µM, first compound 10 µM
# [25] = second compound 3.16 µM, first compound 0.0316 µM
# [26] = second compound 3.16 µM, first compound 0.1 µM
# [27] = second compound 3.16 µM, first compound 0.316 µM
# [28] = second compound 3.16 µM, first compound 1 µM
# [29] = second compound 3.16 µM, first compound 3.16 µM
# [30] = second compound 3.16 µM, first compound 10 µM
# [31] = second compound 10 µM, first compound 0.0316 µM
# [32] = second compound 10 µM, first compound 0.1 µM
# [33] = second compound 10 µM, first compound 0.316 µM
# [34] = second compound 10 µM, first compound 1 µM
# [35] = second compound 10 µM, first compound 3.16 µM
# [36] = second compound 10 µM, first compound 10 µM
# 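Note: spheroids exposed to compounds for 7 days.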
smiles,measurement,setting,value
CC(C)NCC(C(=O)N1CCN(c2ncnc3c2C(C)CC3O)CC1)c1ccc(Cl)cc1 (centres undefined) + CC(Nc1ncnc2nc[nH]c12)c1cc2cccc(Cl)c2c(=O)n1-c1ccccc1,IC50,second compound 0.0316 µM,4.13 µM
same,IC50,second compound 0.1 µM,6.39 µM
same,IC50,second compound 0.316 µM,3.72 µM
same,IC50,second compound 1 µM,4.82 µM
same,IC50,second compound 3.16 µM,4.51 µM
same,IC50,second compound 10 µM,0.775 µM
same,"viability, T/C",[1],98.3%
same,"viability, T/C",[2],102%
same,"viability, T/C",[3],101%
same,"viability, T/C",[4],76.7%
same,"viability, T/C",[5],60%
same,"viability, T/C",[6],24.4%
same,"viability, T/C",[7],104%
same,"viability, T/C",[8],88.9%
same,"viability, T/C",[9],91.2%
same,"viability, T/C",[10],102%
same,"viability, T/C",[11],71.5%
same,"viability, T/C",[12],36.3%
same,"viability, T/C",[13],130%
same,"viability, T/C",[14],88.7%
same,"viability, T/C",[15],77.6%
same,"viability, T/C",[16],67.7%
same,"viability, T/C",[17],72.5%
same,"viability, T/C",[18],26%
same,"viability, T/C",[19],98.1%
same,"viability, T/C",[20],93.9%
same,"viability, T/C",[21],68.1%
same,"viability, T/C",[22],80%
same,"viability, T/C",[23],65.8%
same,"viability, T/C",[24],30.6%
same,"viability, T/C",[25],83.1%
same,"viability, T/C",[26],84.8%
same,"viability, T/C",[27],61.8%
same,"viability, T/C",[28],74.2%
same,"viability, T/C",[29],65.9%
same,"viability, T/C",[30],18.4%
same,"viability, T/C",[31],72.1%
same,"viability, T/C",[32],69.6%
same,"viability, T/C",[33],38.8%
same,"viability, T/C",[34],59.3%
same,"viability, T/C",[35],39.6%
same,"viability, T/C",[36],14.9%
CNC(=O)c1ccc(N2C(=S)N(c3ccc(C#N)c(C(F)(F)F)c3)C(=O)C2(C)C)cc1F + CC(Nc1ncnc2nc[nH]c12)c1cc2cccc(Cl)c2c(=O)n1-c1ccccc1,IC50,second compound 0.0316 µM,> 10 µM
same,IC50,second compound 0.1 µM,> 10 µM
same,IC50,second compound 0.316 µM,> 10 µM
same,IC50,second compound 1 µM,> 10 µM
same,IC50,second compound 3.16 µM,> 10 µM
same,IC50,second compound 10 µM,> 10 µM
same,"viability, T/C",[1],106%
same,"viability, T/C",[2],70.5%
same,"viability, T/C",[3],72.3%
same,"viability, T/C",[4],82.8%
same,"viability, T/C",[5],99.8%
same,"viability, T/C",[6],74.8%
same,"viability, T/C",[7],101%
same,"viability, T/C",[8],90.6%
same,"viability, T/C",[9],111%
same,"viability, T/C",[10],121%
same,"viability, T/C",[11],79.7%
same,"viability, T/C",[12],65.7%
same,"viability, T/C",[13],78.5%
same,"viability, T/C",[14],90.4%
same,"viability, T/C",[15],103%
same,"viability, T/C",[16],79.8%
same,"viability, T/C",[17],102%
same,"viability, T/C",[18],81.8%
same,"viability, T/C",[19],95.1%
same,"viability, T/C",[20],97.1%
same,"viability, T/C",[21],75.9%
same,"viability, T/C",[22],86.5%
same,"viability, T/C",[23],73.1%
same,"viability, T/C",[24],66.4%
same,"viability, T/C",[25],101%
same,"viability, T/C",[26],91.6%
same,"viability, T/C",[27],69.5%
same,"viability, T/C",[28],64.5%
same,"viability, T/C",[29],59.3%
same,"viability, T/C",[30],67.3%
same,"viability, T/C",[31],55%
same,"viability, T/C",[32],44.7%
same,"viability, T/C",[33],64%
same,"viability, T/C",[34],68.6%
same,"viability, T/C",[35],58.5%
same,"viability, T/C",[36],39.8%
